Results on 2 molecules are retold here after US20140051722A1, “TOPICAL LFA-1 ANTAGONISTS FOR USE IN LOCALIZED TREATMENT OF IMMUNE RELATED DISORDERS” (SARCODE BIOSCIENCE INC., priority 2008, published 2014).

In one assay the test system is IL-4. Kind of assay: SEB-stimulated cytokine release from human PBMC: IL-4. It counts as cell-based. The note with it: SEB 1 ng/ml.
Another assay concerns IL-10. Kind of assay: SEB-stimulated cytokine release from human PBMC: IL-10. To be noted: SEB 1 ng/ml. It counts as cell-based.
The next assay has as its system IP-10. Kind of assay: SEB-stimulated cytokine release from human PBMC: IP-10. Type of assay: cell-based. The note with it: SEB 1 ng/ml.
The subject of a further assay is GM-CSF. Kind of assay: SEB-stimulated cytokine release from human PBMC: GM-CSF. It counts as cell-based. The note with it: SEB 1 ng/ml.
A further assay has as its system MCP-1. Kind of assay: SEB-stimulated cytokine release from human PBMC: MCP-1. The note with it: SEB 1 ng/ml. It counts as cell-based.
The next assay concerns IL-1α. Kind of assay: SEB-stimulated cytokine release from human PBMC: IL-1α. Type of assay: cell-based. To be noted: SEB 1 ng/ml.
The next assay has as its system IL-1β. Kind of assay: SEB-stimulated cytokine release from human PBMC: IL-1β. Type of assay: cell-based. To be noted: SEB 1 ng/ml.
Another assay deals with IL-3. Kind of assay: SEB-stimulated cytokine release from human PBMC: IL-3. Type of assay: cell-based. To be noted: SEB 1 ng/ml.
A further assay has as its system IL-5. Kind of assay: SEB-stimulated cytokine release from human PBMC: IL-5. Type of assay: cell-based. To be noted: SEB 1 ng/ml.
In a further assay the test system is IL-6. Kind of assay: SEB-stimulated cytokine release from human PBMC: IL-6. It counts as cell-based. To be noted: SEB 1 ng/ml.
In the next assay the test system is IL-12p40. Kind of assay: SEB-stimulated cytokine release from human PBMC: IL-12p40. It counts as cell-based. The note with it: SEB 1 ng/ml.
The subject of a further assay is IL-13. Kind of assay: SEB-stimulated cytokine release from human PBMC: IL-13. Type of assay: cell-based. To be noted: SEB 1 ng/ml.
In assay [1] the test system is Plaque Psoriasis (PASI score). To be noted: >90% occupancy of LFA-1; cited from earlier work.

For `O=C(NC(Cc1cc(=O)[nH]c2ccccc12)C(=O)O)c1ccc(Cl)cc1` (stereo not shown) [Rebamipide], the EC50 in the assay on IL-4, with IL-10, with IP-10, in the assay on GM-CSF, with MCP-1 and with IL-1α was above 1000 µM throughout. The EC50 in the assay on IL-1β, in the assay with IL-3, in the assay on IL-5, in the assay with IL-6, in the assay with IL-12p40 and in the assay with IL-13 was above 1000 µM throughout.
“efalizumab: anti-LFA-1 monoclonal antibody, clinical trial in plaque psoriasis”: the “clinical improvement in PASI score” value in assay [1] is listed as “greater than 50%”.

The term EC50 denotes the concentration that produces a half-maximal response. Read a low EC50 as a more potent agent.
